Source: patent EP0013144A1, “Substituted diphenylamine derivatives, compositions and herbicidal uses thereof, and processes for their preparation” (ICI AUSTRALIA LIMITED, priority 1978, dated 1980)

How the values were obtained:
Format in all cases: in vivo
Ryegrass [1] = assay: Pre-emergence herbicidal activity (Example 31); set-up: key: 0-3 scale: 0 = 0-25% damage, 3 = 75-99% kill, 3+ = 100% kill; settings: after three weeks
Summary of the method: (§1)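 Ratings run from 0 (0–25% damage) to 3 (75–99% kill), with 3+ meaning complete kill, assessed visually three weeks after spraying. Treatment was applied to soil right after sowing, before germination was triggered by overhead watering in the glasshouse.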

Wheat [2] = assay: Pre-emergence herbicidal activity (Example 31); set-up: key: 0-3 scale: 0 = 0-25% damage, 3 = 75-99% kill, 3+ = 100% kill; settings: 1 kg/ha, after three weeks
Summary of the method: as §1

Ipomea [3] = assay: Pre-emergence herbicidal activity (Example 31); settings: after three weeks
Summary of the method: as §1

Japanese millet [4] = assay: Pre-emergence herbicidal activity (Example 31); settings: after three weeks
Summary of the method: as §1

Mustard = assay: Pre-emergence herbicidal activity (Example 31); settings: after three weeks
Summary of the method: as §1

Sunflower = assay: Pre-emergence herbicidal activity (Example 31); settings: after three weeks
Summary of the method: as §1

Wild Oats [5] = assay: Pre-emergence herbicidal activity (Example 31); settings: after three weeks
Summary of the method: as §1

Wheat [6] = assay: Post-emergence herbicidal activity (Example 32); set-up: key: 0-3 scale: 0 = 0-25% damage, 3 = 75-99% kill, 3+ = 100% kill; settings: 3 weeks after spraying
Summary of the method: (§2)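 Compounds applied as diluted emulsifiable concentrates (toluene with nonylphenol ethoxylate/calcium dodecylbenzene sulfonate) or ball-milled aqueous suspensions, sprayed onto glasshouse plants about 10–12.5 cm tall. Damage assessed visually 3 weeks later versus untreated controls on a 0–3 scale (0 = 0–25% damage, 3 = 75–99% kill, 3+ = 100% kill).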

Ipomea [7] = assay: Post-emergence herbicidal activity (Example 32); settings: 3 weeks after spraying
Summary of the method: as §2

Japanese millet [8] = assay: Post-emergence herbicidal activity (Example 32); settings: 3 weeks after spraying
Summary of the method: as §2

Ryegrass [9] = assay: Post-emergence herbicidal activity (Example 32); settings: 3 weeks after spraying
Summary of the method: as §2

Wild Oats [10] = assay: Post-emergence herbicidal activity (Example 32); settings: 3 weeks after spraying
Summary of the method: as §2

Cotton (Deltapine) = assay: Selective herbicidal activity, young pot plants (Example 35); settings: crop; post-emergence; 0.08 kg/ha; after 20 days; mean of triplicate
Method: (§3) The compounds were formulated for test by mixing an appropriate amount with 5 ml of an emulsion prepared by diluting 160 ml of a solution containing 21.8 g per litre of "Span" 80 and 78.2 g per litre of "Tween" 20 in methylcyclohexanone to 500 ml with water. "Span" 80 is a Trade Mark for a surface-active agent comprising sorbitan monolaurate. "Tween" 20 is a Trade Mark for a surface-active agent comprising a condensate of sorbitan monolaurate with 20 molar proportions of ethylene oxide. Each 5 ml emulsion containing a test compound was then diluted to 40 ml with water and sprayed on to young pot plants (post-emergence test) of the species named in Table 7 below. Damage to test plants was assessed after 20 days on a scale of 0 to 9 whereo 0 is 0 to 10% and 9 is 90 to 100% kill. The tests were carried out in triplicate and the mean results are recorded in Table 7 below.

Digitaria sanguinalis = assay: as above; settings: weed; post-emergence; 0.08 kg/ha; after 20 days; mean of triplicate
Method: as §3

Echinochloa crus-galli = assay: as above; settings: weed; post-emergence; 0.08 kg/ha; after 20 days; mean of triplicate
Method: as §3

Setaria viridis = assay: as above; settings: weed; post-emergence; 0.08 kg/ha; after 20 days; mean of triplicate
Method: as §3

Sorghum halepense [11] = assay: as above; settings: weed; post-emergence; 0.08 kg/ha; after 20 days; mean of triplicate
Method: as §3

Soyabean (Amsoy) = assay: as above; settings: crop; post-emergence; 0.08 kg/ha; after 20 days; mean of triplicate
Method: as §3

Annual Rye Grass = assay: Selective herbicidal activity, seed boxes (Example 34); settings: weed; 0.15 kg/ha; sprayed on one week old seedlings; 29 days after spraying; triplicate
From the text: (§4) The seeds of the test species were sprinkled onto . the surface of soil in seed boxes and covered with a thin layer of sand. The boxes were lightly watered with an overhead spray and placed in a glasshouse for one week to permit germination of the seeds and plant growth to a height of 4 to 5 inches. […] For comparison purposes at least one box containing one week old seedlings was sprayed lightly with water only. After spraying the boxes were returned to the glasshouse for a further 29 days after which the effect of the treatment was visually assessed.

Cotton = assay: as above; settings: crop; 1.5 kg/ha; sprayed on one week old seedlings; 29 days after spraying; triplicate
From the text: as §4

Japanese millet [12] = assay: as above; settings: weed; 0.15 kg/ha; sprayed on one week old seedlings; 29 days after spraying; triplicate
From the text: as §4

Setaria aviceps = assay: as above; settings: weed; 0.15 kg/ha; sprayed on one week old seedlings; 29 days after spraying; triplicate
From the text: as §4

Sorghum halepense [13] = assay: as above; settings: weed; 0.15 kg/ha; sprayed on one week old seedlings; 29 days after spraying; triplicate
From the text: as §4

Soyabean = assay: as above; settings: crop; 1.5 kg/ha; sprayed on one week old seedlings; 29 days after spraying; triplicate
From the text: as §4

Wild Oats [14] = assay: as above; settings: weed; 0.15 kg/ha; sprayed on one week old seedlings; 29 days after spraying; triplicate
From the text: as §4

`COC(=O)C(C)Oc1ccc(Nc2ccc(C(F)(F)F)cc2[N+](=O)[O-])cc1` (stereo not drawn) [Compound 21, Methyl 2-[4-(2-nitro-4-trifluoromethylanilino)phenoxy]-propionate] was tested, and the “damage to plants, Rg” value (Ryegrass [1]; 0.5 kg/ha) was 3+ (3+ represents 100% kill), the “damage to plants, Rg” value (Ryegrass [1]; 1 kg/ha) was 3+ (3+ represents 100% kill) and the “damage to plants, Rg” value (Ryegrass [1]; 5 kg/ha) was 3+ (3+ represents 100% kill). For the same molecule, the “damage to plants, Wh” value (Wheat [2]) was 2, the “damage to plants, Ip” value (Ipomea [3]; 0.5 kg/ha) was 0 (0 represents from 0 to 25% damage) and the “damage to plants, Ip” value (Ipomea [3]; 1 kg/ha) was 0 (0 represents from 0 to 25% damage). The “damage to plants, Ip” value (Ipomea [3]; 5 kg/ha) was 0 (0 represents from 0 to 25% damage), the “damage to plants, Jm” value (Japanese millet [4]; 0.5 kg/ha) was 3+ (3+ represents 100% kill) and the “damage to plants, Jm” value (Japanese millet [4]; 1 kg/ha) was 3+ (3+ represents 100% kill). The “damage to plants, Jm” value (Japanese millet [4]; 5 kg/ha) was 3+ (3+ represents 100% kill), the “damage to plants, Ms” value (Mustard; 0.5 kg/ha) was 0 (0 represents from 0 to 25% damage) and the “damage to plants, Ms” value (Mustard; 1 kg/ha) was 0 (0 represents from 0 to 25% damage). For the same molecule, the “damage to plants, Ms” value (Mustard; 5 kg/ha) was 0 (0 represents from 0 to 25% damage), the “damage to plants, Sf” value (Sunflower; 0.5 kg/ha) was 0 (0 represents from 0 to 25% damage) and the “damage to plants, Sf” value (Sunflower; 1 kg/ha) was 0 (0 represents from 0 to 25% damage). For the same molecule, the “damage to plants, Sf” value (Sunflower; 5 kg/ha) was 0 (0 represents from 0 to 25% damage), the “damage to plants, Ot” value (Wild Oats [5]; 0.5 kg/ha) was 3 (3 represents 75 to 99% kill) and the “damage to plants, Ot” value (Wild Oats [5]; 1 kg/ha) was 3+ (3+ represents 100% kill). The “damage to plants, Ot” value (Wild Oats [5]; 5 kg/ha) was 3+ (3+ represents 100% kill), the “damage to plants, Wh” value (Wheat [6]; 1 kg/ha) was 3 (3 represents 75 to 99% kill) and the “damage to plants, Wh” value (Wheat [6]; 5 kg/ha) was 3+ (3+ represents 100% kill). The “damage to plants, Ip” value (Ipomea [7]; 1 kg/ha) was 0 (0 represents 0 to 25% damage), the “damage to plants, Ip” value (Ipomea [7]; 5 kg/ha) was 2 and the “damage to plants, Jm” value (Japanese millet [8]; 1 kg/ha) was 3+ (3+ represents 100% kill). For the same molecule, the “damage to plants, Jm” value (Japanese millet [8]; 5 kg/ha) was 3+ (3+ represents 100% kill), the “damage to plants, Rg” value (Ryegrass [9]; 1 kg/ha) was 3+ (3+ represents 100% kill) and the “damage to plants, Rg” value (Ryegrass [9]; 5 kg/ha) was 3+ (3+ represents 100% kill). The “damage to plants, Ot” value (Wild Oats [10]; 1 kg/ha) was 3 (3 represents 75 to 99% kill), the “damage to plants, Ot” value (Wild Oats [10]; 5 kg/ha) was 3+ (3+ represents 100% kill) and the “damage to test plants, Ct” value (Cotton (Deltapine)) was 0 (0 is 0 to 10%). For the same molecule, the “damage to test plants, Dg” value (Digitaria sanguinalis) was 5, the “damage to test plants, Ec” value (Echinochloa crus-galli) was 5 and the “damage to test plants, St” value (Setaria viridis) was 8. The “damage to test plants, Sh” value (Sorghum halepense [11]) was 9 (9 is 90 to 100% kill) and the “damage to test plants, Sy” value (Soyabean (Amsoy)) was 0 (0 is 0 to 10%).

`CC(Oc1ccc(Nc2ccc(C(F)(F)F)cc2[N+](=O)[O-])cc1)C(=O)[O-].[Na+]` (stereo not drawn) [Compound 65, 2-[4-(2-Nitro-4-trifluoromethylanilino)phenoxy]-propionic acid sodium salt] was tested, and the “percentage damage, Rg” value (Annual Rye Grass) was 35 percentage, the “percentage damage, Ct” value (Cotton) was 0 percentage and the “percentage damage, Jm” value (Japanese millet [12]) was 100 percentage. For the same molecule, the “percentage damage, St” value (Setaria aviceps) was 50 percentage, the “percentage damage, Sh” value (Sorghum halepense [13]) was 80 percentage and the “percentage damage, Sb” value (Soyabean) was 0 percentage. For the same molecule, the “percentage damage, Ot” value (Wild Oats [14]) was 58 percentage, the “damage to test plants, Ct” value (Cotton (Deltapine)) was 0 (0 is 0 to 10%) and the “damage to test plants, Dg” value (Digitaria sanguinalis) was 3. The “damage to test plants, Ec” value (Echinochloa crus-galli) was 9 (9 is 90 to 100% kill), the “damage to test plants, St” value (Setaria viridis) was 2 and the “damage to test plants, Sh” value (Sorghum halepense [11]) was 8. The “damage to test plants, Sy” value (Soyabean (Amsoy)) was 0 (0 is 0 to 10%).
